Laboratory results reported in patent publication EP4768499A1, “MACROCYCLIC PEPTIDE COMPOUND HAVING CELL MEMBRANE PERMEABILITY AND METABOLIC STABILITY, AND LIBRARY CONTAINING SAME” (Chugai Seiyaku Kabushiki Kaisha, priority 2023, dated 2025).
Starred links: 1 amine or outer side, 2 acyl side, 3 side chain; linkers in the order of their positions; H or OH if unused. Positions of bridges follow the written chain, without caps; N, C: chain ends. Non-standard residues stand in square brackets, D forms with d. Residues, ends and D or L forms follow the SMILES beside them. *: point of attachment. NMedβ3hAla = C[C@H](CC(=O)[*:2])N(C)[*:1]; NMeF = CN[C@@H](Cc1ccccc1)C(=O)O; NMeGABA = CN(CCCC(=O)[*:2])[*:1]; NMeI = CC[C@H](C)[C@H](NC)C(=O)O; NMeT = CN[C@H](C(=O)O)[C@@H](C)O; NMeD = CN[C@@H](CC(=O)O)C(=O)O; NMeL = CN[C@@H](CC(C)C)C(=O)O; NMeV = CN[C@H](C(=O)O)C(C)C; NMeAbu = CC[C@H](NC)C(=O)O; NMeA = CN[C@@H](C)C(=O)O; Piperidide = C1CCN(*)CC1; dNMeA = CN[C@H](C)C(=O)O; Abu = CC[C@H](N)C(=O)O; Sar = CNCC(=O)O; tBu = CC(C)(C)*

Assays:
[1] = Metabolic stability test: liver microsomal stability assay; format: in vitro ADME, mouse; conditions: mouse liver microsomes 0.5 mg protein/mL, compound 1 µM; for microsomal CLint at 1 µM: male, pH 7.4, presence of NADPH, read-out: Mouse Hepatic Microsome CLh,int NADPH(+); for Mouse Hepatic Microsome CLh,int NADPH(-): absence of NADPH
[2] = Membrane permeability test using Caco-2 cells with preincubation; format: in vitro ADME; conditions: Caco-2; preincubation 20 to 24 hours; Apical FaSSIF/HBSS pH 6.0, Basal HBSS 4% BSA pH 7.4; 180 minutes; read-out: Caco2 Papp
Caco-2 cells = experiment: as above; format: in vitro ADME; conditions: Caco-2 cells, preincubation 20 to 24 hours; apical FaSSIF/HBSS 1% DMSO pH 6.0, basal HBSS 4% BSA pH 7.4; basal sample at 180 minutes

SMILES | microsomal CLint at 1 µM [1] [µL/min/mg] | Mouse Hepatic Microsome CLh,int NADPH(-) [1] [µL/min/mg Protein] | Papp A→B [2] [×10⁻⁶ cm/s] | Caco2 Papp (10^-6 cm/sec) (Caco-2 cells)
CC[C@H](C)[C@@H]1NC(=O)[C@H](C)N(C)C(=O)[C@H]([C@@H](C)O)NC(=O)[C@H](CC(C)C)N(C)C(=O)[C@H](COC(C)(C)C)NC(=O)[C@H](Cc2ccccc2)N(C)C(=O)[C@H]([C@@H](C)CC)NC(=O)CNC(=O)[C@H](Cc2ccccc2)N(C)C(=O)[C@H](CC(C)C)N(C)C(=O)CCCN(C)C(=O)C[C@@H](C)N(C)C(=O)[C@H](CC(C)C)NC1=O [pd145] (cyclo(GI[NMeF]S(tBu)[NMeL]T[NMeA]IL[NMedβ3hAla][NMeGABA][NMeL][NMeF])) | 35.5 | 35.7 | 0.05 | 0.05 10^-6 cm/sec
CC[C@@H]1NC(=O)[C@H](Cc2ccccc2)N(C)C(=O)[C@@H]2CCCN2C(=O)[C@H](CC(C)C)N(C)C(=O)[C@H](C(C)C)NC(=O)[C@H](CC(C)C)N(C)C(=O)[C@H]([C@@H](C)O)NC(=O)[C@H](Cc2ccccc2)N(C)C(=O)CN(C)C(=O)C[C@@H](C)N(C)C(=O)[C@H](C(C)C)NC(=O)[C@H](COC(C)(C)C)NC(=O)[C@H](C)N(C)C1=O [pd146] (cyclo([Abu][NMeA]S(tBu)V[NMedβ3hAla][Sar][NMeF]T[NMeL]V[NMeL]P[NMeF])) | 20.3 | 14.1 | 0.2 | 0.20 10^-6 cm/sec
CC[C@H]1C(=O)N[C@@H](COC(C)(C)C)C(=O)N(C)[C@@H](C(C)C)C(=O)N(C)[C@@H](C)C(=O)N(C)[C@H](C)CC(=O)N[C@H](C(C)C)C(=O)N(C)[C@@H](CC(C)C)C(=O)N[C@@H](C)C(=O)N(C)[C@@H](C(C)C)C(=O)N(C)[C@@H](CC(C)C)C(=O)NCC(=O)N(C)[C@@H]([C@@H](C)O)C(=O)N(C)[C@@H](Cc2ccccc2)C(=O)N1C [pd147] (cyclo(A[NMeV][NMeL]G[NMeT][NMeF][NMeAbu]S(tBu)[NMeV][NMeA][NMedβ3hAla][dV][NMeL])) | 13.1 | 14.8 | 0.26 | 0.26 10^-6 cm/sec
CC[C@H](C)[C@@H]1NC(=O)[C@H](CC(C)C)N(C)C(=O)[C@H](C)N(C)C(=O)[C@H](C)NC(=O)C[C@@H](C)N(C)C(=O)[C@H](CC(C)C)N(C)C(=O)[C@H](C)N(C)C(=O)CN(C)C(=O)[C@H]([C@@H](C)O)NC(=O)[C@H](Cc2ccccc2)N(C)C(=O)[C@H](CC(C)C)N(C)C(=O)[C@H](C(C)C)NC(=O)[C@H]([C@@H](C)CC)N(C)C1=O [pd148] (cyclo(A[NMeA][NMeL]I[NMeI]V[NMeL][NMeF]T[Sar][NMeA][NMeL][NMedβ3hAla])) | 25.2 | 16.8 | 0.12 | 0.12 10^-6 cm/sec
CC[C@@H]1NC(=O)[C@H](Cc2ccccc2)N(C)C(=O)[C@@H]2CCCN2C(=O)[C@H](CC(C)C)N(C)C(=O)[C@H](C(C)C)NC(=O)[C@H](CC(C)C)N(C)C(=O)[C@H]([C@@H](C)O)NC(=O)[C@H](Cc2ccccc2)N(C)C(=O)CN(C)C(=O)C[C@@H](C)N(C)C(=O)[C@H](C(C)C)NC(=O)[C@H](CC)N(C)C(=O)[C@H](C)N(C)C1=O [pd149] (cyclo([Abu][NMeA][NMeAbu]V[NMedβ3hAla][Sar][NMeF]T[NMeL]V[NMeL]P[NMeF])) | 10.8 | 1.5 | 0.2 | 0.20 10^-6 cm/sec
CC[C@H]1C(=O)N(C)[C@H](C)CC(=O)N(C)[C@H](C)C(=O)N(C)[C@@H](C)C(=O)N(C)[C@@H](Cc2ccccc2)C(=O)N[C@@H](C(C)C)C(=O)N(C)[C@@H](CC(C)C)C(=O)N(C)[C@@H]([C@@H](C)O)C(=O)N(C)CC(=O)N[C@@H](C)C(=O)N(C)[C@@H](CC(C)C)C(=O)N[C@@H](COC(C)(C)C)C(=O)N(C)[C@@H](Cc2ccccc2)C(=O)N1C [pd150] (cyclo(A[NMeL]S(tBu)[NMeF][NMeAbu][NMedβ3hAla][dNMeA][NMeA][NMeF]V[NMeL][NMeT][Sar])) | 15.2 | 4.2 | 0.29 | 0.29 10^-6 cm/sec
CC[C@H](C)[C@@H]1NC(=O)[C@H]([C@@H](C)CC)N(C)C(=O)[C@@H](C)NC(=O)C[C@@H](C(=O)N2CCCCC2)N(C)C(=O)[C@H](C(C)C)NC(=O)[C@H](Cc2ccccc2)N(C)C(=O)[C@H](COC(C)(C)C)NC(=O)[C@H](CC(C)C)N(C)C(=O)[C@H](C)NC(=O)CN(C)C(=O)[C@H](CC(C)C)N(C)C(=O)[C@H](C)N(C)C(=O)[C@H](Cc2ccccc2)N(C)C1=O [pd151] ([dA][NMeI]I[NMeF][NMeA][NMeL][Sar]A[NMeL]S(tBu)[NMeF]V[NMeD]-Piperidide; lactam N-13) | 29.6 | 22.4 | 0.39 | 0.39 10^-6 cm/sec
